Experiments:
[1] = system: Human breast cancer cell line T47D; experiment: Cell based caspase-3 activity assay: potentiation of MMS induced apoptosis; details: Homo sapiens, T47D, 24 h, T47D cells, 11.1 μg/ml MMS, 24 hours, intracellular caspase-3 activity; read-out: EC50 (nM), potentiation of the apoptosis inducing activity of MMS
Summary of the method: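 T47D cells were exposed for 24 h to compound plus a minimally apoptotic MMS dose (medium containing 11.1 μg/ml MMS). Lysates were incubated 3 h at 37 °C with (Ac-DEVD)2-R110 caspase-3 substrate (20 μM in added buffer) and read at ex 496/em 520 nm. EC50 came from a sigmoidal fit of RFU versus log concentration.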

PARP-1 enzyme = biological target: T1, PARP-1 enzyme (Homo sapiens, UniProt P09874); experiment: PARP-1 enzymatic activity assay (Trevigen 96-well kit 4676-096-K); assay type: biochemical; details: 0.5 unit PARP-1, histone pre-coated plate, 60 min at room temperature; read-out: IC50 (nM), inhibitory effect on PARP-1 enzymatic activity
T1 construct: purchased Trevigen, Inc. 4676-096-K
Source text: Measurement of the inhibitory effect of 1-(3-(4-(pyrimidin-2-yl)piperazine-1-carbonyl)benzyl)quinazoline-2,4(1H,3H)-dione and analogs on PARP-1 enzymatic activity
Briefly, PARP-1 catalyzes the NAD-dependent addition of poly(ADP-ribose) to its nuclear protein substrates such as histones. The assay kit measures the incorporation of biotynylated poly(ADP-ribose) onto histone proteins in a 96-well format.

[2] = system: SW620 human colorectal cancer cells; experiment: MTT based cell viability assay: potentiation of the growth inhibiting activity of MMS; details: Homo sapiens, SW-620, 120 h, read-out: IC50 (nM), potentiation of the growth inhibiting activity of MMS, SW620 cells, 1.7 μg/ml MMS, 5 days (120 hours), MTT
Protocol: Briefly, SW620 human colorectal cancer cells were used to measure the cell growth inhibiting activity of DNA alkylating anticancer drug MMS. […] SW620 cells were grown and maintained in RPMI1640 (Gibco) medium supplemented with 10% FBS (Hyclone). In the first day of experiment, 4000 cells were seeded to each well of a 96-well cell culture plate and incubated at 37° C. and 5% CO2 in a cell culture incubator overnight. In the next day, the cell culture medium was removed. […] The serial dilutions of the reference compounds and the compounds to be tested were made with a 1:3 and 1:10 fashion in DMSO. The 10-fold concentrated solutions of these compounds were made by mixing 10 μl of the serial dilutions in DMSO with 90 μl fresh medium. The final concentration of DMSO in the medium was 1%. The cells were incubated at 37° C. in 5% CO2 cell culture incubator for additional 5 days (120 hours). Afterwards, the 96-well cell culture plate was taken out and 20 μl of MTT solution was added to each well and incubated at 37° C. for 4 h. The medium was removed and 100 μl DMSO was added to each well. The 96-well cell culture plates were shaked adequately for 10 min and read in a Varioskan Flash plate reader (Thermo Fisher Scientific) at 520 and 690 nm. The data were analyzed by Prism 5 software (GraphPad). The obtained 520 nm absorbance readings subtracting corresponding 690 nm reading were analyzed and plotted against the Log scale of the compound concentrations.

[3] = system: BRCA-2 deficient CAPAN-1 human pancreatic cancer cells; experiment: MTT based cell viability assay: growth inhibition of BRCA-2 deficient CAPAN-1 cells; details: 240 h, compound alone, 10 day assay

T1 sequence (P09874 whole entry): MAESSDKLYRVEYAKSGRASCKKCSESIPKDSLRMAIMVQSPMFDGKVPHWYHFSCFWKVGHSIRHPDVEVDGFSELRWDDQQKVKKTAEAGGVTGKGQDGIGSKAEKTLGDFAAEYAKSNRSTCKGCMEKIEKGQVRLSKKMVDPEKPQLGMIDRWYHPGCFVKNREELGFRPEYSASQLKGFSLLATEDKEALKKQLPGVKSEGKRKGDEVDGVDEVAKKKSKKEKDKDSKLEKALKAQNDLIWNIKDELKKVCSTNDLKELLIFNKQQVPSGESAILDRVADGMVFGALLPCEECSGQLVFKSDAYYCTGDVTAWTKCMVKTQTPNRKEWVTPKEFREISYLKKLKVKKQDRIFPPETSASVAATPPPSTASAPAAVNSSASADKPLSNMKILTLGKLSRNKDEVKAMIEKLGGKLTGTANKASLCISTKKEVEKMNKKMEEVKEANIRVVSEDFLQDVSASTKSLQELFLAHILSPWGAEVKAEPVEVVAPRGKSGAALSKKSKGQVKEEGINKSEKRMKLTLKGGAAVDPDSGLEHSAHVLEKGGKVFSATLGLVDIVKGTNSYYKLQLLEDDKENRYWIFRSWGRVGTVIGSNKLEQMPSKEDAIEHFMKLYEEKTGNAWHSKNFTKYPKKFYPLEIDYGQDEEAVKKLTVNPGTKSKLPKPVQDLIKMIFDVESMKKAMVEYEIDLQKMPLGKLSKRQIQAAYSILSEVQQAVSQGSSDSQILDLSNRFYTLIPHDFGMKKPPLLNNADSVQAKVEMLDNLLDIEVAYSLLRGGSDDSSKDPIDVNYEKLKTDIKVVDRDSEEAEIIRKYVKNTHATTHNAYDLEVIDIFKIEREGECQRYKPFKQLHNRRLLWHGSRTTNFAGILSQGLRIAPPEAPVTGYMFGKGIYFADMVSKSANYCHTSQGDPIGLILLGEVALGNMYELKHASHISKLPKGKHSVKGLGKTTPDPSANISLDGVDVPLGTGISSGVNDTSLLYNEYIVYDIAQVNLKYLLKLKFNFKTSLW

SMILES: O=C(c1cccc(Cn2c(=O)[nH]c(=O)c3ccccc32)c1)N1CCN(C(=O)C2CCCC2)CC1 [Example 14, 1-(3-(4-(Cyclopentylcarbonyl)piperazine-1-carbonyl)benzyl)quinazoline-2,4(1H,3H)-dione]
- EC50 [1]: 39 nM
- IC50 (PARP-1 enzyme): 2.3 nM
- IC50 [2]: 102 nM

SMILES: O=C(c1cc(Cn2c(=O)[nH]c(=O)c3c(Cl)cccc32)ccc1F)N1CCN(c2ncccn2)CC1 [Example 103, 5-Chloro-1-(4-fluoro-3-(4-(pyrimidin-2-yl)piperazine-1-carbonyl)benzyl)quinazoline-2,4(1H,3H)-dione]
- EC50 [1]: 29 nM
- IC50 [3]: 665 nM
- IC50 [2]: 45 nM

SMILES: Cc1ccc2c(c1)c(=O)[nH]c(=O)n2Cc1ccc(F)c(C(=O)N2CCN(C(=O)C3CCCC3)CC2)c1 [Example 85, 1-(3-(4-(Cyclopentylcarbonyl)piperazine-1-carbonyl)-4-fluorobenzyl)-6-methylquinazoline-2,4(1H,3H)-dione]
- EC50 [1]: 7.6 nM
- IC50 [3]: 291 nM
- IC50 [2]: 25 nM

SMILES: O=C(c1ccc(F)c(Cn2c(=O)[nH]c(=O)c3cc(Cl)ccc32)c1)N1CCN(C(=O)C2CCCC2)CC1 [Example 124, 6-Chloro-1-(3-(4-(cyclopentylcarbonyl)piperazine-1-carbonyl)-6-fluorobenzyl)quinazoline-2,4(1H,3H)-dione]
- EC50 [1]: 3.8 nM
- IC50 [3]: 137 nM
- IC50 [2]: 9.9 nM

SMILES: O=C(c1ccc(F)c(Cn2c(=O)[nH]c(=O)c3ccccc32)c1)N1CCN(C(=O)C2CCCC2)CC1 [Example 48, 1-(3-(4-(Cyclopentylcarbonyl)piperazine-1-carbonyl)-6-fluorobenzyl)quinazoline-2,4(1H,3H)-dione]
- EC50 [1]: 8.2 nM
- IC50 [3]: 168 nM
- IC50 [2]: 56 nM

SMILES: O=C(c1cc(Cn2c(=O)[nH]c(=O)c3ccccc32)ccc1F)N1CCN(c2nsc3ccccc23)CC1 [Example 43, 1-(3-(4-(Benzo[d]isothiazol-3-yl)piperazine-1-carbonyl)-4-fluorobenzyl)quinazoline-2,4(1H,3H)-dione]
- EC50 [1]: 18 nM
- IC50 [3]: 974 nM
- IC50 [2]: 51 nM

SMILES: O=C(c1cccc(Cn2c(=O)[nH]c(=O)c3ccccc32)c1)N1CCN(c2cnccn2)CC1 [Example 20, 1-(3-(4-(Pyrazin-2-yl)piperazine-1-carbonyl)benzyl)quinazoline-2,4(1H,3H)-dione]
- EC50 [1]: 139 nM
- IC50 [3]: 4940 nM
- IC50 [2]: 391 nM

SMILES: O=C(c1ccc(F)c(Cn2c(=O)[nH]c(=O)c3c(F)cccc32)c1)N1CCN(c2ncccn2)CC1 [Example 154, 5-Fluoro-1-(6-fluoro-3-(4-(pyrimidin-2-yl)piperazine-1-carbonyl)benzyl)quinazoline-2,4(1H,3H)-dione]
- EC50 [1]: 6.7 nM
- IC50 [3]: 56 nM
- IC50 [2]: 7.3 nM

SMILES: Cc1ccc2c(c1)c(=O)[nH]c(=O)n2Cc1cccc(C(=O)N2CCN(c3ncccn3)CC2)c1 [Example 81, 6-Methyl-1-(3-(4-(pyrimidin-2-yl)piperazine-1-carbonyl)benzyl)quinazoline-2,4(1H,3H)-dione]
- EC50 [1]: 63 nM
- IC50 [3]: 421 nM
- IC50 [2]: 99 nM

SMILES: O=C(c1cccc(Cn2c(=O)[nH]c(=O)c3ccccc32)c1)N1CCN(C(=O)C2CCC2)CC1 [Example 30, 1-(3-(4-(Cyclobutylcarbonyl)piperazine-1-carbonyl)benzyl)quinazoline-2,4(1H,3H)-dione]
- EC50 [1]: 39 nM
- IC50 [3]: 1780 nM
- IC50 [2]: 119 nM

SMILES: O=C(c1cc(Cn2c(=O)[nH]c(=O)c3cc(Cl)ccc32)ccc1F)N1CCN(c2ncccn2)CC1 [Example 117, 6-Chloro-1-(4-fluoro-3-(4-(pyrimidin-2-yl)piperazine-1-carbonyl)benzyl)quinazoline-2,4(1H,3H)-dione]
- EC50 [1]: 5.8 nM
- IC50 [3]: 39 nM
- IC50 [2]: 5.1 nM

SMILES: O=C(c1cc(Cn2c(=O)[nH]c(=O)c3c(F)cccc32)ccc1F)N1CCN(C(=O)C2CCCC2)CC1 [Example 133, 1-(3-(4-(Cyclopentylcarbonyl)piperazine-1-carbonyl)-4-fluorobenzyl)-5-fluoroquinazoline-2,4(1H,3H)-dione]
- EC50 [1]: 2.1 nM
- IC50 [3]: 22 nM
- IC50 [2]: 4.1 nM

SMILES: O=C(c1ccco1)N1CCN(C(=O)c2cc(Cn3c(=O)[nH]c(=O)c4cc(F)ccc43)ccc2F)CC1 [Example 185, 6-Fluoro-1-(4-fluoro-3-(4-(furan-2-carbonyl)piperazine-1-carbonyl)benzyl)quinazoline-2,4(1H,3H)-dione]
- EC50 [1]: 2.1 nM
- IC50 [3]: 358 nM
- IC50 [2]: 6.7 nM

SMILES: O=C(c1cccc(Cn2c(=O)[nH]c(=O)c3cc(Cl)ccc32)c1)N1CCN(C(=O)C2CCCCC2)CC1 [Example 113, 6-Chloro-1-(3-(4-(cyclohexylcarbonyl)piperazine-1-carbonyl)benzyl)quinazoline-2,4(1H,3H)-dione]
- EC50 [1]: 17 nM
- IC50 [3]: 170 nM
- IC50 [2]: 9.6 nM

SMILES: O=C(c1ccc(Br)cc1)N1CCN(C(=O)c2cccc(Cn3c(=O)[nH]c(=O)c4ccccc43)c2)CC1 [Example 11, 1-(3-(4-(4-Bromobenzoyl)piperazine-1-carbonyl)benzyl)quinazoline-2,4(1H,3H)-dione]
- EC50 [1]: 214 nM
- IC50 [3]: 1840 nM
- IC50 [2]: 618 nM

SMILES: O=C(c1cc(Cn2c(=O)[nH]c(=O)c3ccccc32)ccc1F)N1CCN(C(=O)C2CC2)CC1 [Example 40, 1-(3-(4-(Cyclopropylcarbonyl)piperazine-1-carbonyl)-4-fluorobenzyl)quinazoline-2,4(1H,3H)-dione]
- EC50 [1]: 29 nM
- IC50 [3]: 1740 nM
- IC50 [2]: 182 nM

SMILES: O=C(c1ccc(F)c(Cn2c(=O)[nH]c(=O)c3c(F)cccc32)c1)N1CCN(C(=O)C2CCCCC2)CC1 [Example 157, 1-(3-(4-(Cyclohexylcarbonyl)piperazine-1-carbonyl)-6-fluorobenzyl)-5-fluoroquinazoline-2,4(1H,3H)-dione]
- EC50 [1]: 26 nM
- IC50 [3]: 202 nM
- IC50 [2]: 18 nM

SMILES: O=C(c1cc(Cn2c(=O)[nH]c(=O)c3c(Cl)cccc32)ccc1F)N1CCN(C(=O)C2CCCCC2)CC1 [Example 105, 5-Chloro-1-(3-(4-(cyclohexylcarbonyl)piperazine-1-carbonyl)-4-fluorobenzyl)quinazoline-2,4(1H,3H)-dione]
- EC50 [1]: 14 nM
- IC50 [3]: 97 nM
- IC50 [2]: 7.9 nM

SMILES: O=C(c1cccc(Cn2c(=O)[nH]c(=O)c3ccc(Cl)cc32)c1)N1CCN(c2ncccn2)CC1 [Example 161, 7-Chloro-1-(3-(4-(pyrimidin-2-yl)piperazine-1-carbonyl)benzyl)quinazoline-2,4(1H,3H)-dione]
- EC50 [1]: 405 nM
- IC50 [3]: 3550 nM
- IC50 [2]: 506 nM

SMILES: O=C(c1cc(Cn2c(=O)[nH]c(=O)c3ccccc32)ccc1Cl)N1CCN(c2ncccn2)CC1 [Example 65, 1-(4-Chloro-3-(4-(pyrimidin-2-yl)piperazine-1-carbonyl)benzyl)quinazoline-2,4(1H,3H)-dione]
- EC50 [1]: 373 nM
- IC50 [3]: 3190 nM
- IC50 [2]: 417 nM

SMILES: O=C(c1cccc(Cn2c(=O)[nH]c(=O)c3c(Cl)cccc32)c1)N1CCN(C(=O)C2CCCC2)CC1 [Example 101, 5-Chloro-1-(3-(4-(cyclopentylcarbonyl)piperazine-1-carbonyl)benzyl)quinazoline-2,4(1H,3H)-dione]
- EC50 [1]: 20 nM
- IC50 [3]: 1050 nM
- IC50 [2]: 117 nM

SMILES: O=C(c1cccc(Cn2c(=O)[nH]c(=O)c3c(F)cccc32)c1)N1CCN(C(=O)C2CCCC2)CC1 [Example 128, 1-(3-(4-(Cyclopentylcarbonyl)piperazine-1-carbonyl)benzyl)-5-fluoroquinazoline-2,4(1H,3H)-dione]
- EC50 [1]: 12 nM
- IC50 [3]: 442 nM
- IC50 [2]: 37 nM

SMILES: O=C(c1ccco1)N1CCN(C(=O)c2cc(Cn3c(=O)[nH]c(=O)c4c(F)cccc43)ccc2F)CC1 [Example 172, 5-Fluoro-1-(4-fluoro-3-(4-(furan-2-carbonyl)piperazine-1-carbonyl)benzyl)quinazoline-2,4(1H,3H)-dione]
- EC50 [1]: 3.2 nM
- IC50 [3]: 389 nM
- IC50 [2]: 9.5 nM

SMILES: O=C(c1ccc(F)c(Cn2c(=O)[nH]c(=O)c3ccccc32)c1)N1CCN(c2ncccn2)CC1 [Example 50, 1-(6-Fluoro-3-(4-(pyrimidin-2-yl)piperazine-1-carbonyl)benzyl)quinazoline-2,4(1H,3H)-dione]
- EC50 [1]: 13 nM
- IC50 [3]: 173 nM
- IC50 [2]: 37 nM

SMILES: O=C(c1cc(F)cc(Cn2c(=O)[nH]c(=O)c3cc(F)ccc32)c1)N1CCN(c2ncccn2)CC1 [Example 186, 6-Fluoro-1-(5-fluoro-3-(4-(pyrimidin-2-yl)piperazine-1-carbonyl)benzyl)quinazoline-2,4(1H,3H)-dione]
- EC50 [1]: 6.8 nM
- IC50 [3]: 167 nM
- IC50 [2]: 24 nM

SMILES: O=C(c1cccc(Cn2c(=O)[nH]c(=O)c3cc(Cl)ccc32)c1)N1CCN(C(=O)C2CCCC2)CC1 [Example 112, 6-Chloro-1-(3-(4-(cyclopentylcarbonyl)piperazine-1-carbonyl)benzyl)quinazoline-2,4(1H,3H)-dione]
- EC50 [1]: 2.9 nM
- IC50 [3]: 767 nM
- IC50 [2]: 14 nM
